In brackets after ≈: the same amount, converted by molar mass. Several values for one entry are separate records, joined by “and”; a condition that tells them apart may be missing. Identical values can stand only once. Like-named read-outs stand apart in the source and are kept apart here.
Tests used:
Bacillus subtilis MW168 = experiment: MIC assay, B. subtilis MW168; assay type: cell-based
HEK293T cells = assay type: cell-based, Human
Experimental: The control for the experiments was DMSO. HEK293T cells were cultivated in DMEM high glucose supplemented with 10% heat-inactivated fetal bovine serum, 100 U/mL of penicillin and streptomycin and maintained at a temperature of 37 °C with 5% CO2. Initially, 4000/well of cells were seeded into 96-well plates and incubated for 24 h before being exposed to compounds at concentrations ranging from 0.78, 50, and 100 µM. After 24 h of incubation, the compounds were added and serially diluted and incubated for 24 and 48 h at 37 °C 5% CO2, the cells were stained with alamar Blue, and the fluorescence excitation/ emission 540 nm/590 nm was measured using 96 well-plate reader. CC50 is defined as the lowest concentration of compound which leads to a 50% reduction in cell viability compared to untreated and DMSO control. Each experiment was repeated in triplicate.

B. subtilis bSS82 = experiment: Bacterial cytological profiling (BCP); assay type: cell-based, Bacillus subtilis
Text: To get an overview of the cellular effects of the compounds, we employed bacterial cytological profiling (BCP). To this end, we used a strain intracellularly expressing green-fluorescent protein (GFP) from the strong, constitutive PrpsD promoter (B. subtilis bSS82[37]), stained with the membrane dye Nile red and the DNA dye DAPI. Combined with phase contrast microscopy, this setup allows simultaneous assessment of cell morphology, cell lysis, pore formation, membrane morphology, and nucleoid morphology in one assay.
BCP was performed according to Wenzel et al.[71]. In short, B. subtilis strain […] (PrpsD-gfp) was grown to an OD600 of 0.3 prior to splitting of parent cultures and addition of antibiotics. Samples were taken for microscopy after 30, 60, and 120 min of antibiotic treatment. Five minutes prior to sampling, cultures were stained with 0.5 µg/mL Nile red and 1 µg/mL DAPI for 5 min. Samples of 0.5 µL were then spotted onto 1% agarose slides[45] and images were taken immediately.
Cell length and DAPI intensity were analyzed using MicrobeJ[73]. To this end, the fit shape, rod-shaped setting was used with a minimum area of 0.5 µm, while all other settings remained at default. B. subtilis chains were seperated based on the membrane stain. Membrane stress was counted using the ObjectJ plugin[74], using the membrane setting to seperate individual cells in chains. Membrane damage was expressed as ratio of cells with visible Nile red foci and total detected cells. DNA compaction was analyzed by determining the area of the DNA and the whole cell are using advanced weka segmentation. Cells were segmented according to the GFP signal. […] Cells that were out of focus or lysed were excluded from the analysis. Statistical analysis was peformed using GraphPad Prism 10 as specified in the individual figure legends.

[1] = system: methicillin-resistant S. aureus (MRSA) COL; experiment: MIC assay, MRSA COL; assay type: cell-based, Staphylococcus aureus
[2] = system: methicillin-sensitive Staphylococcus aureus (MSSA), clinical isolate; experiment: MIC assay, MSSA clinical isolate; assay type: cell-based
[3] = system: RecA-GFP (B. subtilis UG10); experiment: Localization of RecA-GFP (DNA damage reporter); assay type: cell-based, Bacillus subtilis; conditions: Pt1 3.125 µM, Pt8 25 µM, CisPt 100 µM; strongest after 10 min
Experimental: To confirm whether the compounds induce DNA damage in bacterial cells, the localization of RecA was assessed. RecA is part of the bacterial SOS response to DNA damage. It is a DNA-associated protein that recognizes single-stranded DNA, which occurs as a consequence of strand breaks. If strand breaks are present, RecA accumulates at the damaged sites, appearing as foci or elongated structures. Since the RecA response is strongest shortly after stress induction, we additionally examined a 10 min timepoint in this assay.
B. subtilis strains were grown in LB containing appropriate inducer concentrations as specified in Table S10. After reaching an OD600 of 0.3, cultures were split and treated with antibiotics. Samples were withdrawn after 30 and 60 min of treatment, spotted on glass slides covered with 1% agarose films, and immediately imaged.

MRSA NRS 119 = experiment: Broth microdilution MIC, MRSA NRS 119; assay type: cell-based, S. aureus; conditions: Staphylococcus aureus
Experimental: (§1) The data is given in supporting information (Table S5). Before starting the experiment, a single colony was picked from MHA plate, inoculated in MHBII and incubated overnight at 37 °C with shaking for 18–24 h to get the starter culture. Antibiotic susceptibility testing was conducted according to the CLSI (Clinical & Laboratory Standards Institute) guidelines using the broth microdilution assay. 10 mg/mL stock solutions of test compounds were prepared in DMSO. Bacterial cultures were inoculated in MHBII and optical density (OD) was measured at 600 nm, followed by dilution to achieve ~10^6 CFU/mL. The compounds were tested from 64 to 0.5 mg/L in two-fold serial diluted fashion with 2.5 μL of each concentration added to well of a 96-well round bottom microtiter plate. Later, 97.5 μL of bacterial suspension was added to each well containing either test compound or appropriate controls. […] The MIC is defined as the lowest concentration of the compound at which there is absence of visible growth. For each test compound, MIC determinations were carried out independently three times using duplicate samples.

MRSA NRS 192 = experiment: Broth microdilution MIC, MRSA NRS 192; assay type: cell-based, S. aureus; conditions: Staphylococcus aureus
Experimental: as §1

MRSA NRS 193 = experiment: Broth microdilution MIC, MRSA NRS 193; assay type: cell-based, S. aureus; conditions: Staphylococcus aureus
Experimental: as §1

S. aureus ATCC 29213 [4] = experiment: Post antibiotic effect (PAE); assay type: cell-based; conditions: for Time for 1 log10 increase in bacterial cfu count: 1 h exposure
Experimental: Post antibiotic effect (PAE) was determined as follows. […] Following incubation, cultures were centrifuged and washed twice with pre-warmed MHBII to remove any traces of antibiotics. Finally, cells were resuspended in drug-free MHBII and incubated further at 37 °C. Samples were taken every 1 h, serially diluted, and plated on tryptic soy agar (TSA) for enumeration of CFU. […] CFU observed immediately after the removal of the drug, and C in a similarly treated drug-free control.

MRSA NRS 100 = experiment: Broth microdilution MIC, MRSA NRS 100; assay type: cell-based, S. aureus; conditions: Staphylococcus aureus
Experimental: as §1

VRSA VRS 12 = experiment: Broth microdilution MIC, VRSA VRS 12; assay type: cell-based, S. aureus; conditions: Staphylococcus aureus, VRSA
Experimental: as §1

MRSA NRS 198 = experiment: Broth microdilution MIC, MRSA NRS 198; assay type: cell-based, S. aureus; conditions: Staphylococcus aureus
Experimental: as §1

MRSA NRS 191 = experiment: Broth microdilution MIC, MRSA NRS 191; assay type: cell-based, S. aureus; conditions: Staphylococcus aureus
Experimental: as §1

MRSA NRS 129 = experiment: Broth microdilution MIC, MRSA NRS 129; assay type: cell-based, S. aureus; conditions: Staphylococcus aureus
Experimental: as §1

MSSA ATCC 29213 = experiment: Broth microdilution MIC, MSSA ATCC 29213; assay type: cell-based, S. aureus; conditions: Staphylococcus aureus
Experimental: as §1

S. aureus ATCC 29213 [5] = experiment: Drug interaction study (chequerboard assay); assay type: cell-based
Experimental: All compounds were freshly prepared for the experiment. […] Following incubation, the fractional inhibitory concentration index (FICI) was calculated with the formula FICI = […], whereby FICA = MIC of drug A in combination/MIC of drug A alone and FICB = MIC of drug B in combination/MIC of drug B alone. A drug combination is considered synergistic when ∑FICI is ≤0.5, indifferent when ∑FICI is >0.5 to 4, and antagonistic when ∑FICI is >4.

VRSA VRS 1 = experiment: Broth microdilution MIC, VRSA VRS 1; assay type: cell-based, S. aureus; conditions: Staphylococcus aureus, VRSA
Experimental: as §1

VRSA VRS 4 = experiment: Broth microdilution MIC, VRSA VRS 4; assay type: cell-based, S. aureus; conditions: Staphylococcus aureus, VRSA
Experimental: as §1

MRSA NRS 186 = experiment: Broth microdilution MIC, MRSA NRS 186; assay type: cell-based, S. aureus; conditions: Staphylococcus aureus
Experimental: as §1

[6] = system: 36th Passage S.aureus ATCC 29213 in the presence of Pt-1; experiment: microbe, parasite or virus in culture; assay type: cell-based; conditions: Staphylococcus aureus, ATCC29213
Experimental: The MICs of the passaged cultures were determined every 3 days and compared to that of wild type S. aureus ATCC 29213. MIC changes were recorded for 36 passages.

MRSA NRS 194 = experiment: Broth microdilution MIC, MRSA NRS 194; assay type: cell-based, S. aureus; conditions: Staphylococcus aureus
Experimental: as §1

S. aureus ATCC 29213 [7] = experiment: Murine superficial skin infection model; assay type: in vivo; conditions: topical 2% cream, twice daily for 4 days, Swiss mice
Experimental: The in vivo efficacy of Pt1 was determined in a superficial skin infection model. Briefly, male Swiss mice, 4–6 weeks old, weighing ∼22–25 g, were used throughout the study. Mice were caged alone in an individually vented cage (IVC) to check cross-contamination and to maintain aseptic conditions throughout the experiment. Ketamine and xylazine were prepared in distilled water, 40 mg/kg and 8 mg/kg of body weight, respectively, and injected intraperitoneally (IP) as a mixture of 100 μL in each mouse for anaesthesia. Then, we proceeded with the removal of fur by applying depilatory cream. The area was cleaned with sterile distilled water. Approximately 2 cm^2 of skin area was scratched until it became visibly reddened and glistening without any bleeding. For bacterial infection, a 10 μL droplet containing 10^7 CFU/mL of S. aureus ATCC 29213 was applied to the reddened area of skin. To confirm the infection, post 4 h, untreated mice were sacrificed, skin homogenized, and various dilutions of the treatment groups (6 mice per group) were plated on TSA plates. […] Henceforth, the drug regimen was comprised of twice daily application (in the morning and the evening, with an 8 h interval) for 4 days. Control mice were regularly treated with 25–30 mg each of 2% fusidic acid (LEO Pharma, Ballerup, Denmark), 2% infuzide, and base (vehicle). […]

[8] = 60 min, Pt1 3.125 µM, Pt8 25 µM, CisPt 100 µM

N.N.[Cl][Pt][Cl] [CisPt, cisplatin]
MIC (Bacillus subtilis MW168; B. subtilis MW168): >100 µM
IC50 (HEK293T cells; 24 h): 81.6 ± 5.1 µM
IC50 (HEK293T cells; 48 h): 22 ± 3.4 µM
DAPI fluorescence intensity (B. subtilis bSS82; [8]): significant reduction of the DAPI signal
nucleoid compaction (cell area vs DAPI-stained nucleoid area) (B. subtilis bSS82; [8]): clear nucleoid compaction
growth and cell length phenotype (B. subtilis bSS82; B. subtilis, 100 µM): slight growth defects and a mild cell elongation phenotype
MIC ([1]; MRSA COL): >100 µM
MIC ([2]; MSSA clinical isolate): >100 µM
RecA accumulation on nucleoids [3]: clear RecA accumulations

CN[C@H](CC(C)C)C(=O)N[C@H]1C(=O)N[C@@H](CC(N)=O)C(=O)N[C@H]2C(=O)N[C@H]3C(=O)N[C@H](C(=O)N[C@H](C(=O)O)c4cc(O)cc(O)c4-c4cc3ccc4O)[C@H](O)c3ccc(c(Cl)c3)Oc3cc2cc(c3O[C@@H]2O[C@H](CO)[C@@H](O)[C@H](O)[C@H]2O[C@H]2C[C@](C)(N)[C@H](O)[C@H](C)O2)Oc2ccc(cc2Cl)[C@H]1O [Van, Vancomycin]
MIC (Bacillus subtilis MW168; Bacillus subtilis, MW168): < 0.22 µM
MIC (MRSA NRS 119): 1.34 µM (≈ 1.94 µg/mL)
MIC (MRSA NRS 192): 0.67 to 1.34 µM (≈ 0.971 to 1.94 µg/mL)
MIC (MRSA NRS 193): 1.34 µM (≈ 1.94 µg/mL)
PAE (S. aureus ATCC 29213 [4]; 1x MIC): ~ 2.5 h
Time for 1 log10 increase in bacterial cfu count (S. aureus ATCC 29213 [4]; 1x MIC): ~ 5 h
PAE (S. aureus ATCC 29213 [4]; 5x MIC): ~ 2.5 h
Time for 1 log10 increase in bacterial cfu count (S. aureus ATCC 29213 [4]; 5x MIC): ~ 5 h
Time for 1 log10 increase in bacterial cfu count (S. aureus ATCC 29213 [4]; 10x MIC): ~ 5 h
PAE (S. aureus ATCC 29213 [4]; 10x MIC, listed as Vancomycin): ~ 2.5 h
PAE (S. aureus ATCC 29213 [4]; 10x MIC, listed as vancomycin): 2.5 h
MIC (MRSA NRS 100): 1.34 µM (≈ 1.94 µg/mL)
MIC (VRSA VRS 12): > 43.1 µM
MIC (MRSA NRS 198): 1.34 µM (≈ 1.94 µg/mL)
MIC ([1]; Staphylococcus aureus, MRSA): 0.86 µM (≈ 1.25 µg/mL)
MIC (MRSA NRS 191): 1.34 µM (≈ 1.94 µg/mL)
MIC (MRSA NRS 129): 0.67 µM (≈ 0.971 µg/mL)
MIC ([2]; Staphylococcus aureus, MSSA): 0.86 µM (≈ 1.25 µg/mL)
MIC (MSSA ATCC 29213): 1 µg/mL and 0.67 µM
MIC (S. aureus ATCC 29213 [5]; Staphylococcus aureus, ATCC29213): 1 µg/mL
FIC B (S. aureus ATCC 29213 [5]; antibiotic in combination with Pt1 / alone): 1
FIC (FICA+FICB) (S. aureus ATCC 29213 [5]; combination with Pt1): 2
Interference (S. aureus ATCC 29213 [5]; combination with Pt1, synergistic ≤0.5, indifferent >0.5 to 4, antagonistic >4): no interaction
MIC (VRSA VRS 1): > 43.1 µM
MIC (VRSA VRS 4): > 43.1 µM
MIC (MRSA NRS 186): 0.67 µM (≈ 0.971 µg/mL)
MIC [6]: 1 µg/mL (≈ 0.69 µM)
MIC (MRSA NRS 194): 0.67 µM (≈ 0.971 µg/mL)

CC(=O)O[C@H]1C[C@@]2(C)[C@@H](C[C@@H](O)[C@H]3[C@@]4(C)CC[C@@H](O)[C@@H](C)[C@@H]4CC[C@@]32C)/C1=C(\CCC=C(C)C)C(=O)O [fusidic acid]
reduction in bacterial load compared to vehicle-treated group (S. aureus ATCC 29213 [7]): ~ 2.9 log10 CFU/g

— publication PMC13183915, “A platinum butterfly effect: small changes turn an anticancer drug into a non-toxic metalloantibiotic with in vivo efficacy” (npj Antimicrobials and Resistance, 2026)
